# Laboratory results: patent US20150353982A1, “MICRO-EVOLUTION OF MICROBES” (priority 2012, published 2015)
# What was measured:
# [1] = tested on: Arthrospira platensis (CCMP1295); assay: Toxicology assay over 72 hours (BS EN ISO 10253:2006), reduction in specific growth rate; assay type: cell-based
# Description: Toxicology assays and EC50 calculations for copper were performed on Arthrospira platensis (CCMP1295). Assessments were performed under aseptic conditions in 2 stages through an initial range-finding assay (data not shown) using CuSO4 solutions to detect the region of the EC50, followed by a final toxicology assay over 72 hours following British Standard BS EN ISO 10253:2006 [15] with ECso determination where inhibition is measured as a reduction in specific growth rate, relative to control cultures grown under identical conditions. Visual analysis was also performed to assess the effects of metal toxicity on morphology. Statistical analysis was performed using GraphPad Prism 5 Non-linear transform log(agonist) vs. response—variable response function.
# FIGS. 4A and 4B show the results of the toxicity assay using A. platensis. EC50 of Cu^2+ ions for A. platensis was calculated at 0.2976 (in the 95% CI range of 0.17-0.5208 mg/L with an R squared value of 0.8654).
# A. platensis = assay: Micro-evolution exposure (60 days) with fluctuation analysis; assay type: cell-based, Arthrospira platensis
# Excerpt: The result from the fluctuation analysis after the selected period can explain the presence of resistant cells in two ways. Each result is interpreted as the independent consequence of two different phenomena of adaptation. In the first case, if resistant cells arose during the exposure to the selective agent (that is, by physiological adaptation), the variance in the number of cells per culture would be low because every cell is likely to have the same chance of developing resistance (set 1A; FIG. 3). Consequently, inter-culture (tube-to-tube) variation would be consistent with the Poisson model (that is, the variance of these replicate samples would be equal to the mean). By contrast, if resistant cells arose before the exposure to the selective agent (that is, genetic adaptation by rare spontaneous mutation occurring during the time in which the cultures grew from N0 to Nt), a high variation in the number of resistant cells per culture would be found (set 1B; FIG. 3). The tube-to-tube variation would not be consistent with the Poisson model (that is, variance>mean). Fluctuation analysis can likewise show the possibility of no adaptation if no resistant cells are observed after the incubation period in any of the experimental cultures. Since set 2 is the control of the experiment, variation is due only to random sampling and variation from tube to tube would be consistent with the Poisson model. […] If a similar variance: mean ratio between set 1 and set 2 is found, it confirms that resistant cells arose during the exposure to the selecting agent (that is, a post-selective mechanism).
# FIG. 2 illustrates a typical outline of the micro-evolution process. The experiment was performed based on the method from Gonzalez et al., (2012). Following FIG. 2, the culture was cloned through the isolation of a single alga or cyanobacterium, to avoid the inclusion of previous spontaneous mutations, followed by growth. Cloning was performed through microdilution in microwell plates, where the culture was diluted to the culture density of 1 microbe (micro-organism, MO) per 200 μl, providing a single cell in each well (although if microalgae/cyanobacteria can grow on solid medium, isolation on medium agar can also be performed). Propagation of the cloned culture was performed from 200 μl in increasing volume flasks with foam stoppers in a constant temperature room 18° C.+/−1° C., average light intensity 2800 lux with 8:16 dark:light cycle.
# 10e2 MOs were then subcultured into 10 ml 40 vials (set 1), and cultures propagated further in vials and propagation flask (for set 2) (FIG. 3). Before exposure, controls ‘set 2’ were prepared through subculturing from flask into 20 vials. During the exposure stage, CuSO4 solution was added to the 60 vials of each concentration set to make-up the final concentrations of 0.3, 0.6, 1, 2 and 4 mg/Cu^2+ ions. Vials were stored under propagation conditions described above for a period of 60 days, with daily agitation, ensuring resistant cells could generate enough progeny to be detected. After the incubation period, fluctuation analysis was performed to identify those cultures which resistance arose through microevolution.
smiles,measurement,setting,value
"O=S(=O)([O-])[O-].[Cu+2] [Cu^2+ ions, CuSO4]",morphological changes (microscope),"[1]; 1 mg/L Cu2+, after 24 hour",fragmentation of the trichomes
same,EC50,"[1]; 72 hours, CuSO4 solutions, 95% CI 0.17-0.5208 mg/L, R squared 0.8654",0.2976 µg/mL
same,Outcome,A. platensis; 0.3 mg/L Cu^2+ ion concentration,RSM
same,Outcome,A. platensis; 0.6 mg/L Cu^2+ ion concentration,RSM
same,Outcome,A. platensis; 1 mg/L Cu^2+ ion concentration,No adaptation
same,Outcome,A. platensis; 2 mg/L Cu^2+ ion concentration,No adaptation
same,Outcome,A. platensis; 4 mg/L Cu^2+ ion concentration,No adaptation
